From patent US20210236541A1, “IODOPHOR COMPOSITION WITH IMPROVED STABILITY IN THE PRESENCE OF ORGANIC MATERIAL” (priority 2014, published 2021)

Experiments:
Assay type in all cases: cell-based
[1] = system: P. aeruginosa; assay: Nebulisation simulation, kill efficiency on inoculated bandage; conditions: 1 mL nebulised, 15 minutes exposure, FIG. 6
[2] = system: E. coli ATCC 25922; assay: as above; conditions: for performance of the novel iodophor relative to the labelled antibiotic: nebulised, 15 minutes, Levofloxacin and Polymyxin B at all concentrations, Gentamycin 0.1 mg and 1 mg
[3] = system: bacterial cells
[4] = system: E. coli ATCC 25922; assay: MIC micro-broth dilution

**Q.** For OO [Hydrogen peroxide], which killing efficiency [1] is on record?
**A.** The killing efficiency was “limited killing efficiency”.

**Q.** And the killing efficiency ([2]; 1 mL nebulised, 15 minutes exposure, FIG. 5)?
**A.** Its killing efficiency is “limited killing efficiency”.

**Q.** And the “recovery of viable bacterial cells” value [3]?
**A.** Its value is “recovery of viable cells”.

**Q.** How did the “performance of the novel iodophor relative to the labelled antibiotic” value [2] turn out when Gentamycin was run?
**A.** The value was “superior”.

**Q.** Polymyxin B was tested. Which “performance of the novel iodophor relative to the labelled antibiotic” value [2] did it give?
**A.** Its value is “equivalent performance”.

**Q.** What does the source list for polyvinylpyrrolidone iodine [PVP-I]?
**A.** MIC ([4]; in lysogeny broth (LB), text of b30): 500 µg/mL; minimum inhibitory concentration (MIC) ([4]; in water): < 1 µg/mL; MBC value ([4]; organic rich growth medium (such as lysogeny broth)): > 500 µg/mL
